Test results from patent publication US12329745B2, “Methods and compositions for treating glucocorticoid excess” (Sparrow Pharmaceuticals, Inc., priority 2022, dated 2025).

Tests used:
adipose HSD-1 = target: T1, adipose HSD-1 (Homo sapiens, UniProt P28845); test: Adipose HSD-1 inhibition by microdialysis (D8 cortisone to D8 cortisol) in subjects with type 2 diabetes given SPI-62; format: in vivo
T1 construct: infused continuously into subcutaneous abdominal adipose tissue via microdialysis catheters; from tissue; host or cells: human subcutaneous abdominal adipose tissue, in vivo
T1 sequence (P28845 whole entry, the tested form may be a part): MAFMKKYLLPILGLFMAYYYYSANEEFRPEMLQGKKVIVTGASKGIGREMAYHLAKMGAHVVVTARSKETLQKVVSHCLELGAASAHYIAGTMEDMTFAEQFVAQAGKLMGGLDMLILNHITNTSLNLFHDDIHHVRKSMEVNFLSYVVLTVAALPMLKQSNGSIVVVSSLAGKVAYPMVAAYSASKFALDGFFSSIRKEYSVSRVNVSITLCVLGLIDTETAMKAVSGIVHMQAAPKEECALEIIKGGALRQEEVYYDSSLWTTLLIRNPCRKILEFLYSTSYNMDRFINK
Description: Male and non-menstruating female subjects with type 2 diabetes aged between 18 and 65 years with a body mass index between 30.0 and 45.0 were administered SPI-62 daily for 14 days. […] Percent adipose HSD-1 inhibition was calculated as: 100*(1-(MPFt/MPFbaseline).
The time (t) of the sample was considered to be the midpoint of the collection interval. […] Data shown are the median inhibition observed in two subjects for whom the SPI-62 daily dose was 6 mg.
Male and non-menstruating female subjects with type 2 diabetes aged between 18 and 65 years with a body mass index between 30.0 and 45.0 were administered SPI-62 daily for 14 days. In addition to the six subjects described in Example 1 who received SPI-62 1, 3, or 6 mg for 14 days, six additional subjects received SPI-62 1, 2, 3, or 10 mg for 5 to 8 days. […] Percent adipose HSD-1 inhibition was calculated as: 100*(1-(MPFt/MPFbaseline). The time (t) of the sample was considered to be the midpoint of the collection interval. A higher sensitivity assay for D8 cortisol was used to enable quantitation of adipose HSD-1 inhibition of >95%.

[1] = system: urine tetrahydrocortisone; test: Urine tetrahydrocortisone (excreted cortisone metabolite; liver cortisone levels); format: in vivo, human; conditions: healthy adults
Description: In healthy adults administered a single dose of 10, 20, or 50 mg SPI-62 (n=40), the least squares mean (standard error) tetrahydrocortisone was 32.71 (1.149) […] compared to 9.19 (2.300) mol after a single dose of matching placebo (n=10). In the same subjects after 14 daily doses, tetrahydrocortisone was 42.73 (1.968) mol for SPI-62 and 8.51 (0.410) mol for placebo. Similar results were also observed in elderly adults.

serum cortisone = test: Serum cortisone and cortisol in patients with painful diabetic peripheral neuropathy; format: in vivo, human; conditions: 10 mg for 6 weeks
HSD-1 [2] = target: T2, HSD-1 (Homo sapiens, UniProt P28845); test: Surface plasmon resonance binding kinetics in presence of NADPH (residence time); conditions: 300 μM NADPH; reciprocal of the dissociation rate constant; read-out: Residence Time (converted)
T2 sequence (P28845 whole entry): as the sequence (P28845 whole entry, the tested form may be a part) above
Description: Pseudo-irreversible HSD-1 inhibitors can be identified via in vitro enzyme kinetics evaluation, in which they are expected to show longer enzyme residence times compared to other HSD-1 inhibitors. Surface plasmon resonance (SPR) is the resonant oscillation of conduction electrons at the interface between negative and positive permittivity material stimulated by incident light. When a protein is bound to a surface, SPR can be used to detect ligand binding to the protein. […] Association and dissociation of test compounds were monitored in the presence of 300 µM NADPH throughout the experiment.

purified human HSD-1 = purified human HSD-1 (Homo sapiens, UniProt P28845); test: In vitro inhibition of purified human HSD-1; format: biochemical
Sequence of purified human HSD-1 (P28845 whole entry): as the sequence (P28845 whole entry, the tested form may be a part) above

[3] = Phase 2 trial 3662-CL-0049 in painful diabetic peripheral neuropathy: TC, glucose, HbA1c, TG; format: in vivo, human
Description: Analyses of covariance were conducted to analyze total cholesterol (TC), glucose, glycated hemoglobin (HbA1c), and triglycerides (TG), with baseline value as the covariate and a baseline*treatment interaction term, in patients with painful diabetic peripheral neuropathy following daily administration of SPI-62 or placebo. Data were obtained from study 3662-CL-0049, a Phase 2 randomized, double-blind, placebo- and active-controlled clinical trial of the safety and efficacy of SPI-62 in subjects with painful diabetic peripheral neuropathy.

[4] = Clinical effective daily dose and side effects of HSD-1 inhibitors; conditions: human, in vivo
Description: Pseudo-irreversible HSD-1 inhibitors might have additional advantages over other HSD-1 inhibitors. For example, with durable pharmacologic effect, pseudo-irreversible HSD-1 inhibitors are more amenable to less than daily dosing including depot formulations and less likely to show decreased efficacy based on imperfect patient compliance. Additionally, HSD-1 in the human body appears to become completely occupied with approximately 3 mg of a potent small molecule inhibitor. Because pseudo-irreversible inhibitors, once bound, distribute only slowly off HSD-1 a low chronic dose is possible. Several pseudo-irreversible HSD-1 inhibitors, such as SPI-62, ABT-384, MK-0736, and MK-0916, have effective dose ranges below 10 mg daily.

HSD-1 [5] = target: T2, HSD-1; conditions: both, in vivo

## Cn1c(-c2ccc(C(N)=O)cc2F)nnc1C(C)(C)Oc1c(F)cc(Cl)cc1F [SPI-62, 4-(5-(2-(4-chloro-2,6-difluorophenoxy)propan-2-yl)-4-methyl-4H-1,2,4-triazol-3-yl)-3-fluorobenzamide]
Adipose HSD-1; SPI-62 6 mg daily
  adipose HSD-1 inhibition, 2nd v 14th dose intervals: almost identical
Adipose HSD-1; SPI-62 6 mg daily, median of two subjects, FIG. 1
  time after a single dose at which adipose HSD-1 inhibition was detected: 2 to 4 h
Adipose HSD-1; SPI-62 6 mg daily, quantitation limited to ~90-95%
  adipose HSD-1 inhibition during the 2nd dose interval: maximal measurable levels
Adipose HSD-1; SPI-62 1, 2, 3, or 10 mg
  adipose HSD-1 inhibition after multiple doses: maximum measurable
Adipose HSD-1; human, in vivo
  tachyphylaxis of human adipose HSD-1 inhibition with multiple dosing: does not show
Adipose HSD-1; lower single SPI-62 doses
  adipose HSD-1 inhibition after lower single doses: no or limited
[1]; after 14 daily doses
  urine tetrahydrocortisone, least squares mean (standard error): 42.73 (1.968) mol
[1]; single dose of 10, 20, or 50 mg (n=40)
  urine tetrahydrocortisone, least squares mean (standard error): 32.71 (1.149) mol
Serum cortisone
  serum cortisol: did not change
Serum cortisone; last day of study drug administration (n=36)
  serum cortisone: 56.0 (2.37) nM
Serum cortisone; two weeks later
  serum cortisone: 49.5 (1.75) nM
HSD-1 [2]
  residence time: 8.92 min
Purified human HSD-1
  IC50: 17 nM
  Ki: 5.3 nM
[3]; Week 6/EOT
  Glucose, least squares mean (standard error): 7.61 (0.556) mmol/L
  HbA1c, least squares mean (standard error): 7.1%
  TG, least squares mean (standard error): 1.68 (0.202) mmol/L
[3]; Week 6/EOT, N = 36
  TC, least squares mean (standard error): 3.95 (0.120) mmol/L
[3]; Week 8/EOS
  Glucose, least squares mean (standard error): 7.78 (0.546) mmol/L
  HbA1c, least squares mean (standard error): 7.02%
  TC, least squares mean (standard error): 4.16 (0.105) mmol/L
  TG, least squares mean (standard error): 1.63 (0.113) mmol/L
[4]
  effective dose range: below 10 mg daily
HSD-1 [5]
  total target amount in the central compartment (RTOT): 7.84 µM
